The test system of this experiment is 885724-159-R-J1-PDC complex spheroid viability. The experiment is described as follows: Anticancer human tumor 885724-159-R-J1-PDC patient-derived pancreatic adenocarcinoma cell line growth inhibition [POLQ]. As to conditions: for viability, T/C: stronger effect = lower value. The method, then: Multicellular complex tumor spheroid response to Polymerase (POL) inhibitors (novobiocin, ART-558, RP6685) in combination with a variety of drugs and investigational agents in selected tumor cell lines
The POL inhibitors (novobiocin, ART-558, and RP6685) were evaluated both individually and in combination with standard of care and investigational anticancer small molecules within a complex spheroid model of solid tumors. . Complex spheroids include a stromal component modeled by human endothelial cells (HUVEC) and fibroblasts modeled by human mesenchymal stem cells (MSCs). The concentration ranges selected for each drug and investigational agent were based upon clinically achievable concentrations if the clinical Cmax of the agent was known.
Compounds. The drugs and investigational agents: novobiocin (NSC847541), ART-558 (NSC835418), RP-6685 (NSC848927), peposertib (NSC802822), ceralasertib (NSC780249), elimusertib (NSC800525), camonsertib (NSC841442), AZD-1390 (NSC803789), olaparib (NSC753686), talazoparib (NSC767125), rucaparib (NSC756644), sotorasib (NSC818433), MRTX-1133 (NSC836407), SN-38 (NSC673596), topotecan (NSC609699), epotoside (NSC141540), doxorubicin (NSC123127), gemcitabine (NSC613327), 5-fluorouracil (NSC19893), paclitaxel (NSC125973), vemurafenib (NSC761431), MSA-2 (NSC828583), SN-011 (NSC837082), adavosertib (NSC754352), prexasertib (NSC758257), carboplatin (NSC241240) and oxaliplatin (NSC266046), were obtained from the National Cancer Institute (NCI) Developmental Therapeutics Program Chemical Repository (21). The FDA-approved anticancer drug set is available from the Developmental Therapeutics Program at https://dtp.cancer.gov/organization/dscb/obtaining/. […] The stock solutions were prepared in dimethyl sulfoxide (DMSO, Sigma-Aldrich, St. Louis, MO, cat. D2650), except for the platinum compounds which were prepared in saline (Quality Biological, Gaithersburg, MD, cat. 114-055-101), at 800-fold the tested concentration and stored at -70 degrees C prior to their use. All drugs and investigational agents were tested over a range starting from a high concentration at or near the clinical Cmax and decreasing in half-log increments. If the clinical Cmax for an agent had not been determined, the highest concentration tested was 10 microM, except for SN-38, which was tested at a high concentration of 1 microM.
Cell Culture. All cells were maintained in an incubator at 37 degrees C and 5% CO2 with 95% humidity. The PDC lines were cultured according to standard operating procedures established by the NCI PDMR (https://pdmr.cancer.gov). Table 3 of the manuscript, lists the cell lines along with the number of the three cell types plated to form the mct-spheroids and media for tumor cell growth. After thawing, all PDC lines, except 997537-175-T-J1-PDC and 415267-285-R-J2-PDC, were cultured in Matrigel-coated flasks prepared with a working solution of 1X Ham's F-12 nutrient mix, without supplementation (Thermo Fisher Scientific, cat. 11765054), 100 U/mL penicillin-streptomycin (Thermo Fisher Scientific, cat. 15140122), and 2.5% Matrigel (Corning Inc., Corning, NY, cat. 354248) for the first three passages. The two PDC lines 997537-175-T-J1-PDC and 415267-285-R-J2-PDC were cultured on uncoated flasks. The 857933-349-R-J2-PDC line was cultured in 6C/Colon 1B media containing advanced DMEM/F-12 (Thermo Fisher Scientific, cat. 12634028), 10 mM HEPES (Thermo Fisher Scientific, cat. 15630080), 1X GlutaMAX supplement (Thermo Fisher Scientific, cat. 35050061), 0.1 mg/mL primocin (InvivoGen, San Diego, CA, cat. ant-pm-2), 10% defined fetal bovine serum, heat inactivated (HyClone Laboratories Inc., Logan, UT, cat. SH30070.03HI), 50% L-WRN conditioned media (ATCC, cat. CRL-3276), 1.25 mM N-Acetyl-L-cysteine (Sigma-Aldrich, cat. A9165), 10 mM nicotinamide (Sigma-Aldrich, cat. N0636), 1X B-27 supplement (Thermo Fisher Scientific, cat. 17504044), 1X N-2 supplement (Thermo Fisher Scientific, cat. […]

“And” between values parts separate entries of the source, which are not always exact repeats. Equal entries are not always repeated.
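Further: spheroids exposed to compounds for 7 days.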

As a reminder, the viability, T/C is the result in the treated group divided by that in the control group, in per cent. For orientation: IC50 means the concentration at which inhibition is half-maximal. `C=CCn1c(=O)c2cnc(Nc3ccc(N4CCN(C)CC4)cc3)nc2n1-c1cccc(C(C)(C)O)n1`: the viability, T/C by setting is: (compound 0.00316 µM) 96.5% and 99.3% and 105%; (compound 0.01 µM) 95.4% and 94.4% and 90.4%; (compound 0.0316 µM) 93.3% and 87.4% and 93.7%; (compound 0.1 µM) 85.1% and 77.1% and 79.6%; (compound 0.316 µM) 55.8% and 56.4% and 55.1%; (compound 1 µM) 44.7% and 48.3% and 49.7%. The concentration for half-maximal inhibition (IC50) (curve of compound) was 0.577 µM and 0.767 µM and 0.846 µM.
With `CC(=O)O[C@H]1C(=O)[C@@]2(C)[C@H]([C@H](OC(=O)c3ccccc3)[C@]3(O)C[C@H](OC(=O)[C@H](O)[C@@H](NC(=O)c4ccccc4)c4ccccc4)C(C)=C1C3(C)C)[C@]1(OC(C)=O)CO[C@@H]1C[C@@H]2O`, the viability, T/C is, setting by setting: (compound 0.00949 µM) 65.2% and 64.9% and 66%; (compound 0.03 µM) 56.1% and 54% and 50.9%; (compound 0.0949 µM) 56.4% and 63.5% and 54.9%; (compound 0.3 µM) 63.1% and 64.1% and 57.5%; (compound 0.949 µM) 67.5% and 71.9% and 63.7%; (compound 3 µM) 68.5% and 70.2% and 60.7%. The IC50 (curve of compound) is greater than 3 µM.
For the compound `CC1COCCN1c1cc(-c2ccnn2C)c2ccnc(-c3ccn[nH]3)c2n1` (stereo not drawn), the viability, T/C (compound 0.0316 µM) was 73.3% and 80% and 94.5%; the viability, T/C (compound 0.1 µM) was 57.2% and 56.3% and 59.7%; the viability, T/C (compound 0.316 µM) is 49.6% and 42.2% and 46.3%; the viability, T/C (compound 1 µM) was 44.4% and 39.4% and 45.7%; the viability, T/C (compound 3.16 µM) was 43.7% and 39.8% and 43.8%; the viability, T/C (compound 10 µM) was 38.9% and 38.2% and 38.7%. Besides, the IC50 (curve of compound) is 0.283 µM and 0.167 µM and 0.246 µM.
In the case of `CC1COCCN1c1cc(C2(S(C)(=N)=O)CC2)nc(-c2ccnc3[nH]ccc23)n1` (stereo not drawn), the viability, T/C is 96.4% and 90.3% and 97.2% (compound 0.0316 µM); 100% and 94.7% and 97.1% (compound 0.1 µM); 93.7% and 85.1% and 88.2% (compound 0.316 µM); 73.4% and 67.6% and 74.4% (compound 1 µM); 55% and 54.6% and 54.8% (compound 3.16 µM); 45.8% and 44.7% and 42.3% (compound 10 µM). Moreover, the concentration for half-maximal inhibition (IC50) (curve of compound) is 5.73 µM and 4.93 µM.
As for `CCCS(=O)(=O)Nc1ccc(F)c(C(=O)c2c[nH]c3ncc(-c4ccc(Cl)cc4)cc23)c1F`, the viability, T/C (compound 0.0316 µM) is 93.7% and 104% and 95.6%; the viability, T/C (compound 0.1 µM) was 117% and 108% and 115%; the viability, T/C (compound 0.316 µM) is 124% (2×) and 122%; the viability, T/C (compound 1 µM) is 158% and 146% and 140%; the viability, T/C (compound 3.16 µM) was 158% and 144% and 133%; the viability, T/C (compound 10 µM) is 90.7% and 102% and 68.9%. Moreover, the IC50 (curve of compound) is greater than 10 µM.
Regarding `CC[C@@]1(O)C(=O)OCc2c1cc1n(c2=O)Cc2cc3c(CN(C)C)c(O)ccc3nc2-1`, the viability, T/C by setting is: (compound 0.000316 µM) 97.3% and 109% and 93.8%; (compound 0.001 µM) 102% and 92% and 99%; (compound 0.00316 µM) 98.8% and 97.1% and 92.2%; (compound 0.01 µM) 89.7% and 86.8% and 86.5%; (compound 0.0316 µM) 80.4% and 78.2% and 74.8%; (compound 0.1 µM) 57.3% and 62.5% and 57.7%. Further, the IC50 (curve of compound) is greater than 0.1 µM.
Take `CCc1c2c(nc3ccc(O)cc13)-c1cc3c(c(=O)n1C2)COC(=O)[C@]3(O)CC`: the viability, T/C runs as follows: (compound 0.00316 µM) 76.2% and 80.4% and 69%; (compound 0.01 µM) 56% and 61.6% and 54.3%; (compound 0.0316 µM) 53.4% and 55% and 47.8%; (compound 0.1 µM) 47.3% and 54.5% and 50.5%; (compound 0.316 µM) 32% and 33.2% and 35.3%; (compound 1 µM) 5.28% and 5.56% and 4.88%. For the same compound, the IC50 (curve of compound) is 0.0554 µM and 0.0882 µM and 0.0655 µM.
On to `CNCc1ccc(-c2[nH]c3cc(F)cc4c3c2CCNC4=O)cc1`, for which the viability, T/C (compound 0.0316 µM) was 109% and 96.8% and 102%; the viability, T/C (compound 0.1 µM) is 102% and 92.6% and 112%; the viability, T/C (compound 0.316 µM) was 88.9% and 91.8% and 107%; the viability, T/C (compound 1 µM) was 87.8% and 98.4% and 99.9%; the viability, T/C (compound 3.16 µM) is 89.9% and 93.1% and 107%; the viability, T/C (compound 10 µM) is 93% and 91% and 83.8%. The IC50 (curve of compound) is greater than 10 µM.
Turning to `COC1C(OC(N)=O)C(O)C(Oc2ccc3c(O)c(NC(=O)c4ccc(O)c(CC=C(C)C)c4)c(=O)oc3c2C)OC1(C)C` (stereo not drawn), the viability, T/C is 94.1% [middle of 13 runs] (compound 0.0316 µM); 95.9% [middle of 13 runs] (compound 0.1 µM); 98.5% [middle of 13 runs] (compound 0.316 µM); 98.8% [middle of 12 runs] (compound 1 µM); 98.5% [middle of 13 runs] (compound 3.16 µM); 106% [middle of 13 runs] (compound 10 µM). The IC50 (compound alone, run of 11/27/2023) was greater than 10 µM.

For the origin of these results see PubChem BioAssay AID1963832 (Molecular Pharmacology Branch, DTP, NCI, 2024).
